Test results taken from article PMC10122656, “Siglec-6 mediates the uptake of extracellular vesicles through a noncanonical glycolipid binding pocket” (Nature Communications, 2023).
Several values for one entry are separate records, joined by “and”; a condition that tells them apart may be missing. Equal values may be shown once.

Assays:
Assay in all cases: Cell assay (liposome/EV binding, flow cytometry);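 on liposome binding, fluorescence signal (replicates): AF647 fluorescence intensity from 0.1 mol% AF647–PEG45–DSPE in liposomes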
Type in all cases: cell-based
[1] = target: T1, WT Siglec-6 CHO cells (Homo sapiens, UniProt O43699); settings: for log10(MFI AF647) of GLL relative to log10(MFI AF647) of the same GLL against UT CHO cells (Fig. 2a): Sig-6 WT, 3 mol% ganglioside liposomes; for Binding of liposomes to WT Siglec-6 CHO cells relative to liposomes formulated without a ligand (Fig. 3c): 3 mol% glycolipid, Cer = native ganglioside, Amide = amide-linked nGL;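 on liposome binding, fluorescence signal (replicates): AF647 fluorescence intensity from 0.1 mol% AF647–PEG45–DSPE in liposomes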
T1 construct: expressed in transfected cells
T1 sequence (O43699 27-453): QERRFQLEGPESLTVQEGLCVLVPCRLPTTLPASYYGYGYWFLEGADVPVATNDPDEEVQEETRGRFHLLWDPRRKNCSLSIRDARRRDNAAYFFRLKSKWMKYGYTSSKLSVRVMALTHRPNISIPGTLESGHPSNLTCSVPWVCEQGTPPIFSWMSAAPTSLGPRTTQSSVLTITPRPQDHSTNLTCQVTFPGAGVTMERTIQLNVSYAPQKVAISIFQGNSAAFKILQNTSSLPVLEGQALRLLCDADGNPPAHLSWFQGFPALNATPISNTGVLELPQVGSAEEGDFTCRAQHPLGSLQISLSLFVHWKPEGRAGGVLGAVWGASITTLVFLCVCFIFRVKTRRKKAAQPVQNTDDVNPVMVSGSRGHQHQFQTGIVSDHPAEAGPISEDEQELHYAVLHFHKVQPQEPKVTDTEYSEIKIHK
Outline: (§1)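 Cells are incubated for 30 min at 37 °C with ligand-displaying liposomes (50 µM lipid) or EVs (50 µg/mL protein) in DMEM F12 containing 5% FBS. After washing and anti-Siglec staining on ice, liposome binding is quantified by flow cytometry within the Siglec-positive population.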

[2] = target: T2, R122A Siglec-6 CHO cells (Homo sapiens, UniProt O43699, R122A); settings: replicates; for log10(MFI AF647) of GLL relative to log10(MFI AF647) of the same GLL against UT CHO cells (Fig. 2a): Sig-6 R122A, 3 mol% ganglioside liposomes
T2 construct: expressed in transfected cells
T2 sequence (O43699 27-453 R122A): as the sequence (O43699 27-453) above, with R96A counted along it
Outline: as §1

[3] = target: T3, CD22 WT CHO cells (Homo sapiens, UniProt P20273); settings: 3 mol% ganglioside liposomes, replicates
T3 construct: expressed in transfected cells
T3 sequence (P20273 20-847): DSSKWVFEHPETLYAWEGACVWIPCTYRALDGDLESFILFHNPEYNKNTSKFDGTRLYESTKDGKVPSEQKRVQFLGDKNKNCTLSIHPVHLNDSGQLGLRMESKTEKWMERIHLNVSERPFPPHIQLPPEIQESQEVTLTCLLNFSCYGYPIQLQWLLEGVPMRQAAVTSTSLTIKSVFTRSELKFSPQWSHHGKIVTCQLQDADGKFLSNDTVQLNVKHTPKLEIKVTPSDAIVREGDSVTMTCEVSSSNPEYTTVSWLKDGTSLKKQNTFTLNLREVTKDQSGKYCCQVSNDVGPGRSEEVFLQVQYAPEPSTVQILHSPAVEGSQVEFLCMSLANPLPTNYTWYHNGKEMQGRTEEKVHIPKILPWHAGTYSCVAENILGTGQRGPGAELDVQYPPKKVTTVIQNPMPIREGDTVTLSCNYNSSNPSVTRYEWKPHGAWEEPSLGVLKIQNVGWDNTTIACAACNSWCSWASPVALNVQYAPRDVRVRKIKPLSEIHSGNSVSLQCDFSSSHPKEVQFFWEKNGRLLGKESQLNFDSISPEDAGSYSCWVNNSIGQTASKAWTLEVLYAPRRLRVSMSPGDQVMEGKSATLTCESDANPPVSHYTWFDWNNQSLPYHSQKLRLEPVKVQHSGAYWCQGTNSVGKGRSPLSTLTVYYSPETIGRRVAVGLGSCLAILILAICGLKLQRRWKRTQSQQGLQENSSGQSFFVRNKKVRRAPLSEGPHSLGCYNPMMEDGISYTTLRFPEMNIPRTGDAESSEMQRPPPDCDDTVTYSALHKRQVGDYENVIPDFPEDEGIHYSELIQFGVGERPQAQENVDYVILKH
Outline: as §1

[4] = target: T4, Siglec-15 WT CHO cells (Homo sapiens, UniProt Q6ZMC9, K274L); settings: Sig-15 WT; 3 mol% ganglioside liposomes; replicates
T4 construct: expressed in transfected cells
T4 sequence (Q6ZMC9 20-328 K274L): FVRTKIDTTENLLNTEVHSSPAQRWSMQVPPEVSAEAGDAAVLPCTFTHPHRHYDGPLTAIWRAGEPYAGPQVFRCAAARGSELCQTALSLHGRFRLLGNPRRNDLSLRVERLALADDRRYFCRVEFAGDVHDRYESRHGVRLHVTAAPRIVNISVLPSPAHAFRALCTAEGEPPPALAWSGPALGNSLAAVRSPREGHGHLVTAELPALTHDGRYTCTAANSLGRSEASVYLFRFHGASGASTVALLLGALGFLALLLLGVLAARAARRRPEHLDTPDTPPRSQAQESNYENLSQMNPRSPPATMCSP
Outline: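 Extruded PEGylated DSPC/cholesterol liposomes (100 nm filter; 130 ± 35 nm) bearing Siglec ligand and AF647 lipids. Cells + 50 µM liposome or 50 µg/mL EV, DMEM F12/5% FBS, 37 °C, 30 min; washed; anti-Siglec 1:250, ice 30 min; flow, Siglec+ gate.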

[5] = target: T5, Siglec-8 R125A CHO cells (Homo sapiens, UniProt Q9NYZ4, R125A); settings: Sig-8 R125A; 3 mol% ganglioside liposomes; replicates
T5 construct: expressed in transfected cells
T5 sequence (Q9NYZ4 17-499 R125A): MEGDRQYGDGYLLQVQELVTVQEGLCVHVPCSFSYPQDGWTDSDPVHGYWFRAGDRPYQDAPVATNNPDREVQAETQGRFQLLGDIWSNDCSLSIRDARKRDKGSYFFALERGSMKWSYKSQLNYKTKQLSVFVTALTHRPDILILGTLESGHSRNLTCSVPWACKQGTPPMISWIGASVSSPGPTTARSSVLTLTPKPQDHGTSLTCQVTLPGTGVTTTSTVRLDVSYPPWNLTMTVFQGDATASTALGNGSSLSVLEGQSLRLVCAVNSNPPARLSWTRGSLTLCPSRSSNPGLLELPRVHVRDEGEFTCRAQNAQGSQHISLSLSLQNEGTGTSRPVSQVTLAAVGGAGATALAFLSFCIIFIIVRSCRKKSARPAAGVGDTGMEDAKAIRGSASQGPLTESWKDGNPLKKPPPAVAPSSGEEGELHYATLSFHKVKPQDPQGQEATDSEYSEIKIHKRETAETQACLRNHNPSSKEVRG
Outline: as §1

[6] = sheet Figure S17, cells not given, three experiments, each with its own Naked control

Compound | log10(MFI AF647) of GLL relative to log10(MFI AF647) of the same GLL against UT CHO cells (Fig. 2a) ([1]; replicates) | log10(MFI AF647) of GLL relative to log10(MFI AF647) of the same GLL against UT CHO cells (Fig. 2a) [3] | log10(MFI AF647) of GLL relative to log10(MFI AF647) of the same GLL against UT CHO cells (Fig. 2a) [2] | log10(MFI AF647) of GLL relative to log10(MFI AF647) of the same GLL against UT CHO cells (Fig. 2a) [4] | log10(MFI AF647) of GLL relative to log10(MFI AF647) of the same GLL against UT CHO cells (Fig. 2a) [5] | also measured
CCCCCCCCCCCCCCCCOCC(COCCCCCCCCCCCCCCCC)OCc1cn(CCO[C@@H]2O[C@H](CO)[C@@H](O[C@@H]3O[C@H](CO)[C@H](O)[C@H](O[C@]4(C(=O)O)C[C@H](O)[C@@H](NC(C)=O)[C@H]([C@H](O)[C@H](O)CO)O4)[C@H]3O)[C@H](O)[C@H]2O)nn1 [GM3-DAG] | – | – | – | – | – | liposome binding, fluorescence signal (replicates) ([1]; sheet Figure S22b, Sig-6): 1899 and 2014 and 1894 and 1967; liposome binding, fluorescence signal (replicates) ([1]; sheet Figure S26a, 3% GM3-DAG liposomes, WT): 5874 and 5544 and 5060 and 6703; liposome binding, fluorescence signal (replicates) ([1]; sheet Figure S28b, 3% GM3-DAG liposomes, WT): 2153 and 2258 and 2285 and 2102; liposome binding, fluorescence signal (replicates) ([1]; sheet Figure S26d, WT): 1302 and 879 and 1034 and 1211
CCCCCCCCCCCCCCCCOCC(COCCCCCCCCCCCCCCCC)OCc1cn(CCO[C@@H]2O[C@H](CO)[C@@H](O[C@@H]3O[C@H](CO)[C@H](O)[C@H](O[C@]4(C(=O)O)C[C@H](O)[C@@H](NC(C)=O)[C@H]([C@H](O)[C@H](O)CO)O4)[C@H]3O)[C@H](O)[C@H]2O)nn1 [nGL 5] | – | – | – | – | – | nGLL binding to WT Siglec-6 CHO cells (in words) ([1]; 3 mol% nGL in liposomes): relatively high binding; Binding of nGL liposomes to WT Siglec-6 CHO cells relative to naked liposomes (Fig. 3e) ([1]; 3 mol% nGL, replicates): 13.1 and 10.8 and 11.4 and 14; Binding of nGL liposomes relative to liposomes formulated with 3 mol% nGL 5 (Fig. 3g) ([1]; WT Siglec-6 CHO cells, 3 mol% nGL, replicates): 0.93 and 1.01 and 1.13; fold difference in binding to Siglec-6 between 5 and GM3 ([1]; cell assay (liposomal display)): 34 fold; liposome binding, fluorescence signal (replicates) [1, 6]: 3983 and 3299 and 3469 and 4281; liposome binding, fluorescence signal (replicates) ([1]; sheet Figure S18a, cells not given): 2909 and 2902 and 3112 and 3410; optimal content of 5 in liposomes for engaging Siglec-6 ([1]; titration in cell assay and bead assay): 5 mol%; Binding of nGL liposomes relative to liposomes formulated with 3 mol% nGL 5 (Fig. 3g) ([2]; R122A Siglec-6 CHO cells, 3 mol% nGL): 1.02 and 1.01 and 0.97
GD1a | 0.57 (2×) and 0.56 (2×) | 0.06 (2×) and 0.03 and 0.05 | 0.5 and 0.47 and 0.41 and 0.51 | -0.08 and -0.06 and -0.07 (2×) | -0.1 and -0.13 (3×) | –
GD1b | 0.23 and 0.21 (2×) and 0.22 | -0.04 and -0.05 and -0.06 (2×) | 0.2 and 0.17 (2×) and 0.16 | -0.14 (2×) and -0.12 (2×) | -0.14 and -0.15 and -0.17 and -0.19 | –
GD3 | 0.91 and 0.9 (2×) and 0.88 | 0.09 and 0.07 and 0.1 (2×) | 0.78 (2×) and 0.7 and 0.79 | -0.02 and -0.01 and 0 and -0.03 | -0.04 (2×) and -0.08 (2×) | –
GM1 | 0.96 and 0.93 and 0.94 (2×) | -0.03 (2×) and -0.04 and -0.06 | 0.91 and 0.89 and 0.86 and 0.85 | -0.21 and -0.2 and -0.17 (2×) | -0.02 and -0.06 and -0.08 and -0.03 | Binding of liposomes to WT Siglec-6 CHO cells relative to liposomes formulated without a ligand (Fig. 3c) ([1]; replicates, listed as GM1 Cer): 10 and 9.9 and 11 and 10.2; GLL binding to Siglec-6 with increasing ganglioside content (in words) ([1]; ganglioside titrated in GLLs): decreased above an optimal ganglioside content; liposome binding, fluorescence signal (replicates) [1, 6]: 2111 and 2091 and 2310 and 2148
GM2 | 0.03 (2×) and 0.04 and 0.06 | 0.01 (3×) and 0 | 0.01 | -0.07 and -0.05 and -0.03 (2×) | -0.12 and -0.14 and -0.17 (2×) | –
GM3 | -0.2 (2×) and -0.19 and -0.17 | -0.16 and -0.15 (3×) | -0.11 (2×) and -0.14 (2×) | -0.12 and -0.09 (2×) and -0.1 | -0.18 and -0.17 and -0.2 (2×) | Binding of liposomes to WT Siglec-6 CHO cells relative to liposomes formulated without a ligand (Fig. 3c) ([1]; replicates, listed as GM3 Cer): 0.344 and 0.335 and 0.365 and 0.403; liposome binding, fluorescence signal (replicates) [1, 6]: 274 and 267 and 291 and 321
GM4 | 0.02 (2×) and 0.05 and 0.04 | 0.05 (2×) and 0.06 and 0.07 | 0 | -0.1 and -0.08 (2×) and -0.07 | -0.14 (3×) and -0.16 | –
GQ1b | 0.57 and 0.55 and 0.54 and 0.56 | -0.05 (3×) and -0.04 | 0.46 and 0.48 and 0.4 and 0.42 | -0.13 and -0.12 (2×) and -0.17 | 0.01 and -0.02 and -0.04 and -0.05 | –
GT1b | 0.81 and 0.79 and 0.8 (2×) | 0.06 (2×) and 0.04 and 0.05 | 0.72 and 0.7 and 0.61 and 0.69 | -0.04 (3×) and -0.01 | -0.22 (2×) and -0.23 and -0.24 | –
